Measurements: ChEMBL document CHEMBL1955855, “A domino Knoevenagel hetero-Diels-Alder reaction for the synthesis of polycyclic chromene derivatives and evaluation of their cytotoxicity” (Bioorg Med Chem Lett, 2012)

How the values were obtained:
A549 = assay: Cytotoxicity against human A549 cells after 72 hrs by MTT assay; type: functional, cell-based
B16 = assay: Cytotoxicity against mouse B16 cells after 72 hrs by MTT assay; type: functional, cell-based
[1] = Homo sapiens, A549, 72 h, read-out: IC50
[2] = Mus musculus, B16, 72 h, read-out: IC50

Compound: CC1(C)Oc2c(c(=O)oc3ccccc23)[C@H]2C3=Cc4ccccc4O[C@@]3(C)CC[C@H]21 (relative stereo)
- IC50 (A549; [1]): 9.58 µM
- IC50 (B16; [2]): 35.7 µM

Compound: CC1(C)CC(=O)C2=C(C1)OC(C)(C)[C@@H]1CC[C@]3(C)Oc4ccccc4C=C3[C@H]21 (relative stereo)
- IC50 (A549; [1]): 8.64 µM
- IC50 (B16; [2]): 10.2 µM

Compound: Cn1c2c(c(=O)n(C)c1=O)[C@H]1C3=Cc4ccccc4O[C@@]3(C)CC[C@H]1C(C)(C)O2 (relative stereo)
- IC50 (A549; [1]): 3.8 µM
- IC50 (B16; [2]): 8.47 µM

Compound: CC1(C)Oc2c(c(=O)oc3ccccc23)[C@H]2C3=Cc4cc(Cl)ccc4O[C@@]3(C)CC[C@H]21 (relative stereo)
- IC50 (A549; [1]): 0.26 µM
- IC50 (B16; [2]): 20.4 µM

Compound: CC1(C)OC2=C(C(=O)c3ccccc32)[C@H]2C3=Cc4cc(Cl)ccc4O[C@@]3(C)CC[C@H]21
- IC50 (A549; [1]): 26.3 µM
- IC50 (B16; b16): Not Active

Compound: COc1cccc2c1C(=O)c1c(O)c3c(c(O)c1C2=O)C[C@@](O)(C(=O)CO)C[C@@H]3O[C@H]1C[C@H](N)[C@H](O)[C@H](C)O1 [DOXORUBICIN]
- IC50 (A549; [1]): < 0.1 µM
- IC50 (B16; [2]): < 0.1 µM

Compound: Cn1c2c(c(=O)n(C)c1=O)[C@H]1C3=Cc4cc(Cl)ccc4O[C@@]3(C)CC[C@H]1C(C)(C)O2 (relative stereo)
- IC50 (A549; a549): Not Active
- IC50 (B16; [2]): 7.69 µM

Compound: CC1(C)OC2=C(C(=O)CCC2)[C@H]2C3=Cc4cc(Cl)ccc4O[C@@]3(C)CC[C@H]21 (relative stereo)
- IC50 (A549; [1]): 4.01 µM
- IC50 (B16; [2]): 2 µM

Compound: CC1(C)OC2=C(C(=O)CCC2)[C@H]2C3=Cc4cc(Br)ccc4O[C@@]3(C)CC[C@H]21 (relative stereo)
- IC50 (A549; [1]): 19.7 µM
- IC50 (B16; [2]): 16.5 µM

Compound: CC1(C)CC(=O)C2=C(C1)OC(C)(C)[C@@H]1CC[C@]3(C)Oc4ccc(Br)cc4C=C3[C@H]21 (relative stereo)
- IC50 (A549; [1]): 6.13 µM
- IC50 (B16; [2]): 12.5 µM

Compound: CC1(C)OC2=C(C(=O)CCC2)[C@H]2C3=Cc4ccccc4O[C@@]3(C)CC[C@H]21 (relative stereo)
- IC50 (A549; [1]): 20.8 µM
- IC50 (B16; [2]): 12.8 µM
